Test results taken from publication PMC2248166, “Quantitative peptide binding motifs for 19 human and mouse MHC class I molecules derived using positional scanning combinatorial peptide libraries” (Immunome Research, 2008).

What was measured:
HLA B*0702 = HLA B*0702 (Homo sapiens, UniProt P01889); assay type: binding; settings: positional scanning combinatorial 9-mer library; normalized to 1.0 for the best residue at each position
HLA B*3501 = HLA B*3501 (Homo sapiens, UniProt P01889, A329T/A93T/A95T/C349S/D201E/D98Y/E176V/E187L/E204Q/E69T/I218V/K202T/L119I/Q94N/R155S/R180L/S121R/S35A/S48A/T118I/V127L/V306I/V36M/Y140S/Y91F); assay type: binding
H-2 K^k = H-2 K^k (Mus musculus, UniProt P04223); assay type: binding
HLA A*0201 = HLA A*0201 (Homo sapiens, UniProt P04439, D140Y/D185E/D98H/E176V/E277Q/G131W/G231S/I119V/I121R/I166T/I218V/L300P/L318F/N151K/N90K/P208A/P217A/Q86G/Q94H/R138H/R169H/T345S); settings: positional scanning combinatorial 9-mer library; normalized to 1.0 for the best residue at each position
H-2 D^d = H-2 D^d (Mus musculus, UniProt P01900); assay type: binding
HLA A*3201 = HLA A*3201 (Homo sapiens, UniProt P04439, A270S/D101S/D185E/E176V/E277Q/F133L/G103R/G107R/G231S/H175R/I121M/I218V/I322F/K168Q/L105A/L300P/L318F/M331R/P208A/P217A/Q94H/R106L/R138Q/S129P/T104I/T323A/T345S/V100E/V321M/V358M); test: biochemical; assay type: binding
HLA B*1501 = HLA B*1501 (Homo sapiens, UniProt P01889, A329T/A93T/A95T/C349S/D201E/D98Y/E187L/E204Q/E69M/E70A/K202T/N87E/Q94N/R155S/R180W/S121R/S35A/S48A/V306I/V36M/Y140S/Y91S); test: biochemical; assay type: binding
HLA B*5401 = HLA B*5401 (Homo sapiens, UniProt P01889, A329T/C349S/D138N/D201E/E176V/E187T/E204Q/E69G/I76V/K202T/L119W/R155S/R180L/S121T/S35A/S48A/V127L/V306I/V36M/Y140L); assay type: binding
HLA B*5801 = HLA B*5801 (Homo sapiens, UniProt P01889, A329T/C349S/D201E/D98Y/E176V/E187L/E204Q/E69T/G107R/I218V/I90N/K202T/L105A/L119I/N104I/N87E/Q89R/Q94S/R106L/R155S/R180L/R86G/S101N/S121R/S35A/S48A/T118I/V127L/V306I/V36M/Y140S/Y91M); assay type: binding
H-2 D^b = H-2 D^b (Mus musculus, UniProt P01899); assay type: binding
HLA B*0801 = HLA B*0801 (Homo sapiens, UniProt P01889, A93T/A95T/D138N/E176V/E187T/K202T/Q94N/R180D/S35A/V36M/Y33D/Y91F); test: biochemical; assay type: binding
HLA B*5301 = HLA B*5301 (Homo sapiens, UniProt P01889, A329T/A93T/A95T/C349S/D201E/D98Y/E176V/E187L/E204Q/E69T/G107R/I218V/K202T/L105A/L119I/N104I/Q94N/R106L/R155S/R180L/S101N/S121R/S35A/S48A/T118I/V127L/V306I/V36M/Y140S/Y91F); assay type: binding
HLA B*2705 = HLA B*2705 (Homo sapiens, UniProt P01889, D138H/D201E/E176V/E204Q/G107R/H137Y/K202T/N104T/N87E/Q56L/Q94K/R106L/R155S/R180L/S101D/S121N/S48T/Y140D/Y33H/Y91C); assay type: binding; settings: positional scanning combinatorial 9-mer library; normalized to 1.0 for the best residue at each position
HLA A*3001 = HLA A*3001 (Homo sapiens, UniProt P04439, D140H/D185E/E176W/F33S/G80R/H175R/K168Q/R138E/R41S); test: biochemical; assay type: binding
HLA B*5802 = HLA B*5802 (Homo sapiens, UniProt P01889, A329T/C349S/D201E/D98Y/E176V/E187L/E204Q/E69T/G107R/I218V/I90N/K202T/L105A/N104I/N87E/Q89R/Q94S/R106L/R155S/R180L/R86G/S101N/S121W/S35A/S48A/V127L/V306I/V36M/Y140S/Y91M); assay type: binding
HLA B*1503 = HLA B*1503 (Homo sapiens, UniProt P01889, A329T/A93T/A95T/C349S/D201E/D98Y/E187L/E204Q/K202T/N87E/Q94N/R155S/R180L/S121R/S35A/V306I/V36M/Y140S/Y91S); test: biochemical; assay type: binding
HLA A*6802 = HLA A*6802 (Homo sapiens, UniProt P04439, A269V/D140Y/D185E/E176V/E277Q/E87N/F33Y/G231S/I121R/I166T/I218V/L180W/L300P/L318F/N151K/P208A/P217A/Q86R/R138H/R169H/S129P/T345S/V36M); assay type: binding
HLA B*5101 = HLA B*5101 (Homo sapiens, UniProt P01889, A329T/A93T/A95T/C349S/D138N/D201E/D98Y/E187L/E204Q/E69T/G107R/I218V/K202T/L105A/L119W/N104I/Q94N/R106L/R155S/R180L/S101N/S121T/S35A/S48A/V306I/V36M/Y195H/Y91F); assay type: binding

Sequence of H-2 D^d (P01900 whole entry, looked up): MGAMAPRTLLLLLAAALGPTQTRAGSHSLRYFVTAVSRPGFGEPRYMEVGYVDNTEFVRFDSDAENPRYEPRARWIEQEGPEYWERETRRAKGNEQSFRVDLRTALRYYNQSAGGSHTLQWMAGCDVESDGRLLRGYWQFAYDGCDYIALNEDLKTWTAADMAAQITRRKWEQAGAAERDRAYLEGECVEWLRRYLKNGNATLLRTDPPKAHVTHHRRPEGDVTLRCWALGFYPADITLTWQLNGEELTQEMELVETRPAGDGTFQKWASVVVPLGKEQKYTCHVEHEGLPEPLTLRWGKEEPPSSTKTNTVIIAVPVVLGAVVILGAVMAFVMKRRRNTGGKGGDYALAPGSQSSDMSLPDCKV
Sequence of H-2 K^k (P01887 21-119): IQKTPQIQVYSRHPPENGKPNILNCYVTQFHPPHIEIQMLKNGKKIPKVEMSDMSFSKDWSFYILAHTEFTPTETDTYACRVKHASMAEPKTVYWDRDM
Sequence of H-2 K^k (P04223 22-369): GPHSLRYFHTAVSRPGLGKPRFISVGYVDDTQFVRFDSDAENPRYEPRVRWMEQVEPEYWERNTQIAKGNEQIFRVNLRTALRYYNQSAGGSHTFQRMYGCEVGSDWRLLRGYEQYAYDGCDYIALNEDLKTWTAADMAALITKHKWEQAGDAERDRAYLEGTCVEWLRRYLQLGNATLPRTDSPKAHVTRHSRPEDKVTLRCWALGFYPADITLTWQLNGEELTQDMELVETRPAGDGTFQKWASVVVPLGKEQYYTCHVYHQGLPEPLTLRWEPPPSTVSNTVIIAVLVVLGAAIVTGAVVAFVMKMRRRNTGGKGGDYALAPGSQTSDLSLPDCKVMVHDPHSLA
Sequence of H-2 D^b (P01887 21-119): as the sequence (P01887 21-119) above
Sequence of H-2 D^b (P01899 25-362): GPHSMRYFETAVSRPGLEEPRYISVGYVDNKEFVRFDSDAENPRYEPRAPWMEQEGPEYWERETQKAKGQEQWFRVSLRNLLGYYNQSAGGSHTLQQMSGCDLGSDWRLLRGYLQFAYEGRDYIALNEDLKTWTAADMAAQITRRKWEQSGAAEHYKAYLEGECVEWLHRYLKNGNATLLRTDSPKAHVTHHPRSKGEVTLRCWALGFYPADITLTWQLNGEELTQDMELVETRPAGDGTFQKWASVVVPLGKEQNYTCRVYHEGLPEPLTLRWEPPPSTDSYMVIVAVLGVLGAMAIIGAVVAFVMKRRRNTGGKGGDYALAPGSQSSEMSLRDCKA

| Sequence | Normalized average relative binding affinity (ARB), HLA B*0702 (HLA B*0702) | Normalized average relative binding affinity (ARB), HLA B*3501 (HLA B*3501) | Normalized average relative binding affinity (ARB), H-2 Kk (H-2 K^k) | Normalized average relative binding affinity (ARB), HLA A*0201 (HLA A*0201) | Normalized average relative binding affinity (ARB), H-2 Dd (H-2 D^d) | Normalized average relative binding affinity (ARB), HLA A*3201 (HLA A*3201) | Normalized average relative binding affinity (ARB), HLA B*1501 (HLA B*1501) | Normalized average relative binding affinity (ARB), HLA B*5401 (HLA B*5401) | Normalized average relative binding affinity (ARB), HLA B*5801 (HLA B*5801) | Normalized average relative binding affinity (ARB), H-2 Db (H-2 D^b) | Normalized average relative binding affinity (ARB), HLA B*0801 (HLA B*0801) | Normalized average relative binding affinity (ARB), HLA B*5301 (HLA B*5301) | Normalized average relative binding affinity (ARB), HLA B*2705 (HLA B*2705) | Normalized average relative binding affinity (ARB), HLA A*3001 (HLA A*3001) | Normalized average relative binding affinity (ARB), HLA B*5802 (HLA B*5802) | Normalized average relative binding affinity (ARB), HLA B*1503 (HLA B*1503) | Normalized average relative binding affinity (ARB), HLA A*6802 (HLA A*6802) | Normalized average relative binding affinity (ARB), HLA B*5101 (HLA B*5101) |
| --- | --- | --- | --- | --- | --- | --- | --- | --- | --- | --- | --- | --- | --- | --- | --- | --- | --- | --- |
| WXXXXXXXX [3064.0019] | 0.25 | 0.23 | 0.80 | 0.057 | 1.0 | 0.059 | 0.44 | 0.14 | 0.29 | 0.16 | 0.20 | 0.17 | 0.41 | 0.020 | 0.11 | 0.27 | 0.19 | 0.11 |
| XDXXXXXXX [3064.0023] | 0.0029 | 0.018 | 0.13 | 0.0016 | 0.013 | 0.025 | 0.0094 | 0.0009 | 0.0033 | 0.036 | 0.014 | 0.0088 | 0.0016 | 0.012 | 0.030 | 0.0054 | 0.0075 | 0.022 |
| XRXXXXXXX [3064.0035] | 0.0078 | 0.068 | 0.0071 | 0.0016 | 0.028 | 0.0090 | 0.024 | 0.0042 | 0.017 | 0.036 | 0.30 | 0.0045 | 1.0 | 0.048 | 0.030 | 0.059 | 0.0069 | 0.022 |
